Assay results reported in patent publication US10183015B2, “Heterocyclic compounds and methods of use” (Medivation Technologies LLC, priority 2015, dated 2019).

Each molecule was assayed on HepG2 cells (assay: HepG2 cell viability under serum-free conditions (MTS)). Settings: Homo sapiens, HepG2, 72 h; 5 μM, 3 days, DMEM without FBS; read-out: Average Viability (% Inhibition, n = 3).
Assay type: cell-based
Description: Cancer cells such as HepG2 cells depend on SREBP activation and de novo lipogenesis to survive, particularly in low serum or serum-free conditions. Using this model, compounds were screened over 24 hours for the ability to block cleavage of SREBP to its active form and over 72 hours for an effect on cell viability under serum-free conditions.
For viability measurements, HepG2 cells were seeded at 5,000 cells per well in 96-well plates in DMEM supplemented with 10% FBS. After 1 day in culture, cells were treated with compounds (20 μM & 5 μM) for 3 days in DMEM without FBS. Viability was measured by MTS […]. […]

| SMILES | cytotoxicity at 5 µM [%] |
| --- | --- |
| O=S(=O)(Nc1ccc(-c2csc(-c3ccnc(CC4CCCCC4)c3)n2)c(Cl)c1)C(F)(F)F [Compound 70, N-(3-chloro-4-{2-[2-(cyclohexylmethyl)pyridin-4-yl]-1,3-thiazol-4-yl}phenyl)-1,1,1-trifluoromethanesulfonamide] | 100 |
| O=S(=O)(Nc1ccc(-c2csc(-c3cccc4ccccc34)n2)c(Cl)c1)C(F)(F)F [Compound 71, N-{3-chloro-4-[2-(naphthalen-1-yl)-1,3-thiazol-4-yl]phenyl}-1,1,1-trifluoromethanesulfonamide] | 97 |
| O=S(=O)(Nc1ccc(-c2csc(-c3ccc4cc[nH]c4c3)n2)c(Cl)c1)C(F)(F)F [Compound 72, N-{3-chloro-4-[2-(1H-indol-6-yl)-1,3-thiazol-4-yl]phenyl}-1,1,1-trifluoromethanesulfonamide] | 94 |
| O=S(=O)(Nc1ccc(-c2csc(-c3ccc(C(F)(F)F)c(OCc4ccccc4)c3)n2)c(Cl)c1)C(F)(F)F [Compound 73, N-(4-{2-[3-(benzyloxy)-4-(trifluoromethyl)phenyl]-1,3-thiazol-4-yl}-3-chlorophenyl)-1,1,1-trifluoromethanesulfonamide] | 99 |
| O=S(=O)(Nc1ccc(-c2csc(-c3ccccc3-c3ccccc3)n2)c(Cl)c1)C(F)(F)F [Compound 74, N-{3-chloro-4-[2-(2-phenylphenyl)-1,3-thiazol-4-yl]phenyl}-1,1,1-trifluoromethanesulfonamide] | 97 |
| O=S(=O)(Nc1ccc(-c2csc(-c3cncc4ccccc34)n2)c(Cl)c1)C(F)(F)F [Compound 75, N-{3-chloro-4-[2-(isoquinolin-4-yl)-1,3-thiazol-4-yl]phenyl}-1,1,1-trifluoromethanesulfonamide] | 88 |
| CN1CCN(c2cc(-c3nc(-c4ccc(NS(=O)(=O)C(F)(F)F)cc4Cl)cs3)ccn2)CC1 [Compound 76, N-(3-chloro-4-{2-[2-(4-methylpiperazin-1-yl)pyridin-4-yl]-1,3-thiazol-4-yl}phenyl)-1,1,1-trifluoromethanesulfonamide] | 3 |
| Cc1noc(C)c1-c1nc(-c2ccc(NS(=O)(=O)C(F)(F)F)cc2Cl)cs1 [Compound 77, N-{3-chloro-4-[2-(dimethyl-1,2-oxazol-4-yl)-1,3-thiazol-4-yl]phenyl}-1,1,1-trifluoromethanesulfonamide] | 41 |
| Cc1ccc(S(=O)(=O)Nc2cccc(-c3nc(-c4ccc(NS(=O)(=O)C(F)(F)F)cc4Cl)cs3)c2)cc1 [Compound 78, N-{3-[4-(2-chloro-4-trifluoromethanesulfonamidophenyl)-1,3-thiazol-2-yl]phenyl}-4-methylbenzene-1-sulfonamide] | 87 |
| COc1ccc(-c2nc(-c3ccc(NS(=O)(=O)C(F)(F)F)cc3Cl)cs2)cc1OC [Compound 79, N-{3-chloro-4-[2-(3,4-dimethoxyphenyl)-1,3-thiazol-4-yl]phenyl}-1,1,1-trifluoromethanesulfonamide] | 74 |
| O=S(=O)(Nc1ccc(-c2csc(-c3cccc4[nH]ccc34)n2)c(Cl)c1)C(F)(F)F [Compound 80, N-{3-chloro-4-[2-(1H-indol-4-yl)-1,3-thiazol-4-yl]phenyl}-1,1,1-trifluoromethanesulfonamide] | 86 |
| O=S(=O)(Nc1ccc(-c2csc(-c3ccc(F)cc3C(F)(F)F)n2)c(Cl)c1)C(F)(F)F [Compound 81, N-[3-chloro-4-[2-[4-fluoro-2-(trifluoromethyl)phenyl]thiazol-4-yl]phenyl]-1,1,1-trifluoro-methanesulfonamide] | 88 |
| O=S(=O)(Nc1ccc(-c2csc(-c3ccc4c(c3)CCO4)n2)c(Cl)c1)C(F)(F)F [Compound 82, N-{3-chloro-4-[2-(2,3-dihydro-1-benzofuran-5-yl)-1,3-thiazol-4-yl]phenyl}-1,1,1-trifluoromethanesulfonamide] | 82 |
| O=S(=O)(Nc1ccc(-c2csc(-c3cccc(CO)c3)n2)c(Cl)c1)C(F)(F)F [Compound 83, N-(3-chloro-4-{2-[3-(hydroxymethyl)phenyl]-1,3-thiazol-4-yl}phenyl)-1,1,1-trifluoromethanesulfonamide] | 0 |
| O=S(=O)(Nc1ccc(-c2csc(-c3ccccc3CO)n2)c(Cl)c1)C(F)(F)F [Compound 84, N-(3-chloro-4-{2-[2-(hydroxymethyl)phenyl]-1,3-thiazol-4-yl}phenyl)-1,1,1-trifluoromethanesulfonamide] | 18 |
| O=S(=O)(Nc1ccc(-c2csc(-c3ccnc(N4CCCCC4)c3)n2)c(Cl)c1)C(F)(F)F [Compound 85, N-(3-chloro-4-{2-[2-(piperidin-1-yl)pyridin-4-yl]-1,3-thiazol-4-yl}phenyl)-1,1,1-trifluoromethanesulfonamide] | 93 |
| Cc1cnccc1-c1nc(-c2ccc(NS(=O)(=O)C(F)(F)F)cc2Cl)cs1 [Compound 86, N-{3-chloro-4-[2-(3-methylpyridin-4-yl)-1,3-thiazol-4-yl]phenyl}-1,1,1-trifluoromethanesulfonamide] | 27 |
| O=S(=O)(Nc1ccc(-c2csc(-c3ccnc4[nH]ccc34)n2)c(Cl)c1)C(F)(F)F [Compound 87, N-[3-chloro-4-(2-{1H-pyrrolo[2,3-b]pyridin-4-yl}-1,3-thiazol-4-yl)phenyl]-1,1,1-trifluoromethanesulfonamide] | 9 |
| O=S(=O)(Nc1ccc(-c2csc(-c3cccc(N4CCCCC4)c3)n2)c(Cl)c1)C(F)(F)F [Compound 88, N-(3-chloro-4-{2-[3-(piperidin-1-yl)phenyl]-1,3-thiazol-4-yl}phenyl)-1,1,1-trifluoromethanesulfonamide] | 19 |
| O=S(=O)(Nc1ccc(-c2csc(-c3csc4ccccc34)n2)c(Cl)c1)C(F)(F)F [Compound 90, N-{4-[2-(1-benzothiophen-3-yl)-1,3-thiazol-4-yl]-3-chlorophenyl}-1,1,1-trifluoromethanesulfonamide] | 99 |

Same assay, conditions: Homo sapiens, HepG2, 72 h; 20 μM, 3 days, DMEM without FBS; read-out: Average Viability (% Inhibition, n = 3)

| SMILES | cytotoxicity at 20 µM [%] |
| --- | --- |
| CCCc1cc(-c2nc(-c3ccc(NS(=O)(=O)C(F)(F)F)cc3)cs2)ccn1 [Compound 1, 1,1,1-trifluoro-N-(4-(2-(2-propylpyridin-4-yl)thiazol-4-yl)phenyl)methanesulfonamide] | 92.1 |
| CCCc1cc(-c2nc(-c3cccc(NS(=O)(=O)C(F)(F)F)c3)cs2)ccn1 [Compound 2, 1,1,1-trifluoro-N-(3-(2-(2-propylpyridin-4-yl)thiazol-4-yl)phenyl)methanesulfonamide] | 80.5 |
| CCCc1cc(-c2nc(-c3ccc(NS(=O)(=O)C(F)(F)F)cc3Cl)cs2)ccn1 [Compound 4, N-(3-chloro-4-(2-(2-propylpyridin-4-yl)thiazol-4-yl)phenyl)-1,1,1-trifluoromethanesulfonamide] | 94.4 |
| COc1cc(-c2csc(-c3ccnc(CC(C)C)c3)n2)ccc1NS(=O)(=O)C(F)(F)F [Compound 57, 1,1,1-trifluoro-N-(2-methoxy-4-{2-[2-(2-methylpropyl)pyridin-4-yl]-1,3-thiazol-4-yl}phenyl) methanesulfonamide] | 56.4 |
| CCCc1cc(-c2nc(-c3ccc(NS(=O)(=O)C(F)(F)F)c(OC)c3)cs2)ccn1 [Compound 58, 1,1,1-trifluoro-N-{2-methoxy-4-[2-(2-propylpyridin-4-yl)-1,3-thiazol-4-yl]phenyl}methanesulfonamide] | 67.9 |
| COc1cc(-c2csc(-c3ccnc(C(C)(C)C)c3)n2)ccc1NS(=O)(=O)C(F)(F)F [Compound 59, N-(4-(2-(2-tert-butylpyridin-4-yl)thiazol-4-yl)-2-methoxyphenyl)-1,1,1-trifluoromethanesulfonamide] | 99.8 |
| O=S(=O)(Nc1ccc(-c2csc(-c3ccnc(Cc4ccccc4)c3)n2)c(Cl)c1)C(F)(F)F [Compound 60, N-{4-[2-(2-benzylpyridin-4-yl)-1,3-thiazol-4-yl]-3-chlorophenyl}-1,1,1-trifluoromethanesulfonamide] | 100 |
| Nc1cc(-c2nc(-c3ccc(NS(=O)(=O)C(F)(F)F)cc3Cl)cs2)ccn1 [Compound 61, N-{4-[2-(2-aminopyridin-4-yl)-1,3-thiazol-4-yl]-3-chlorophenyl}-1,1,1-trifluoromethanesulfonamide] | 43 |
| CS(=O)(=O)Nc1cc(-c2nc(-c3ccc(NS(=O)(=O)C(F)(F)F)cc3Cl)cs2)ccn1 [Compound 62, N-{3-chloro-4-[2-(2-methanesulfonamidopyridin-4-yl)-1,3-thiazol-4-yl]phenyl}-1,1,1-trifluoromethanesulfonamide] | 0 |
| O=S(=O)(Nc1ccc(-c2csc(-c3ccnc(CCC(F)(F)F)c3)n2)c(Cl)c1)C(F)(F)F [Compound 64, N-(3-chloro-4-{2-[2-(3,3,3-trifluoropropyl)pyridin-4-yl]-1,3-thiazol-4-yl}phenyl)-1,1,1-trifluoromethanesulfonamide] | 100 |
| O=S(=O)(Nc1ccc(-c2csc(-c3ccnc(NS(=O)(=O)C(F)(F)F)c3)n2)c(Cl)c1)C(F)(F)F [Compound 66, N-{3-chloro-4-[2-(2-trifluoromethanesulfonamidopyridin-4-yl)-1,3-thiazol-4-yl]phenyl}-1,1,1-trifluoromethanesulfonamide] | 11 |
| O=C(c1ccc(-c2nc(-c3ccc(NS(=O)(=O)C(F)(F)F)cc3Cl)cs2)cc1)N1CCCCC1 [Compound 67, N-(3-chloro-4-{2-[4-(piperidine-1-carbonyl)phenyl]-1,3-thiazol-4-yl}phenyl)-1,1,1-trifluoromethanesulfonamide] | 20 |
